Reference: the RepoRT retention time repository (doi:10.1016/j.aca.2012.07.013)

Assay: RP, 50 × 2.1 mm, 1.7 µm, 0.5 mL/min, estimated dead time 0.22 min; A: 98% water + 2% acetonitrile + 0.1% formic acid, pH 3; B: 2% water + 98% acetonitrile + 0.1% formic acid, pH 3; gradient (min/%B) 0/0 0.5/0 4/60 8/100 9/100 9.2/0 10/0
Settings: stereoisomer not certain

Compound | LC retention time
Oc1ccc(C(c2ccc(O)cc2)(C(F)(F)F)C(F)(F)F)cc1 [bisphenol AF] | 0.397 min
O=c1cc2oc3ccccc3oc-2cc1=O [dibenzo[1,4]dioxin-2,3-dione] | 2.57 min
CC(CCC(=O)NCC(=O)O)C1CCC2C3C(O)CC4CC(O)CCC4(C)C3CC(O)C12C (configuration not stated) [glycocholic acid (GCA)] | 3.36 min
CCCCCCCCCCCCCC=CC(O)C([NH3+])COP(=O)([O-])O (configuration not stated) [sphingosine 1-phosphate] | 4.36 min
CCC=CCC=CCC=CCC=CCC=CCC=CCCC(=O)OCC(O)COP(=O)([O-])OCC[N+](C)(C)C (configuration not stated) [LPC (22:6)] | 4.72 min
CC(CCC(=O)NCCS(=O)(=O)O)C1CCC2C3C(O)CC4CC(O)CCC4(C)C3CC(O)C12C (configuration not stated) [taurocholic acid (TCA)] | 3.08 min
CC(CCC(=O)NCC(=O)O)C1CCC2C3C(O)CC4CC(OS(=O)(=O)O)CCC4(C)C3CCC12C (configuration not stated) [glycochenodeoxycholate-3-sulfate] | 3.38 min
CCC=CCC=CCC=CCC=CCC=CCC=CCCC(=O)OC(CO)COP(=O)(O)OCCN (configuration not stated) [LPE (0:0/22:6(4Z,7Z,10Z,13Z,16Z,19Z))] | 4.71 min
CCC=CCC=CCC=CCC=CCCCCCCC(=O)OC(CO)COP(=O)(O)OCCN (configuration not stated) [LPE (0:0/20:4(8Z,11Z,14Z,17Z))] | 4.74 min
Nc1ccc(C(F)(F)F)cc1 [4-trifluoro methylaniline] | 0.383 min
CCCCCC=CCC=CCC=CCC=CCCCC(=O)OC(CO)COP(=O)(O)OCCN (configuration not stated) [LPE (0:0/20:4(5Z,8Z,11Z,14Z)] | 4.74 min
CCCCCCCCCCCCCCCCCC(=O)OCC(O)COP(=O)([O-])OCC[N+](C)(C)C (configuration not stated) [LPC (18:0)] | 5.64 min

The remaining lines, values ahead:

LC retention time | Compound
4.52 min | CCCCCCCCCCCCCCCCCCOCC(O)COP(=O)(O)OCC(N)C(=O)O (configuration not stated) [PS (O-18:0/0:0)]
4.71 min | CCCCCC=CCC=CCC=CCCCCCCC(=O)OCC(O)COP(=O)(O)OCCN (configuration not stated) [LPE (20:3)]
4.67 min | CCCCCCCCCCCCCCC(=O)OCC(O)COP(=O)([O-])OCC[N+](C)(C)C (configuration not stated) [LPC (15:0)]
4.98 min | CCCCCCCCCCCCCCCC(=O)OCC(O)COP(=O)([O-])OCC[N+](C)(C)C (configuration not stated) [LPC (16:0)]
3.78 min | CC(CCC(=O)NCC(=O)O)C1CCC2C3CCC4CC(O)CCC4(C)C3CC(O)C12C (configuration not stated) [glycodeoxycholic acid (GDCA)]
5.3 min | CCCCCCCCCCCCCCCCC(=O)OCC(O)COP(=O)([O-])OCC[N+](C)(C)C (configuration not stated) [LPC (17:0)]
3.78 min | CC(CCC(=O)NCC(=O)O)C1CCC2C3C(O)CC4CC(O)CCC4(C)C3CCC12C (configuration not stated) [glycochenodeoxycholic acid (GCDCA)]
2.39 min | c1ccc(CSSCc2ccccc2)cc1 [dibenzyl disulfide]
4.74 min | CCC=CCC=CCC=CCC=CCCCCCCC(=O)OCC(O)COP(=O)(O)OCCN (configuration not stated) [LPE (20:4(8Z,11Z,14Z,17Z)/0:0)]
3.45 min | CC(CCC(=O)NCCS(=O)(=O)O)C1CCC2C3C(O)CC4CC(O)CCC4(C)C3CCC12C (configuration not stated) [taurochenodeoxycholic acid (TCDCA)]
